Measured values published in a melting point compilation (Tetko et al.; mined from patent text by program, amines drawn as free bases though some values may be those of a salt).

SMILES | melting point [°C]
COc1cc(NC(=O)CN2CCN(c3ncccc3C#N)CC2)cc(OC)c1OC | 123 to 124
CC1(C)NC(=O)CN1C(=O)CN | 145 to 148
O=S(=O)(Nc1ccc2c(OCc3ccc4ccccc4c3)cccc2c1)C(F)(F)F | 140 to 142
COC(=O)C(C)(C)OCc1cc2nc(Cl)ccc2n1S(=O)(=O)c1cccc2ccccc12 | 108
COc1ccc(-c2cc(-c3ccccc3)[nH]c2C(=O)NCc2ccc(C(=O)Nc3ccccc3S)cc2)cc1 | 134 to 135
CN(C)S(=O)(=O)C=C(C(=O)C1CCCCC1)c1cccc([N+](=O)[O-])c1 | 115 to 118
CC(=O)NC[C@H]1CN(c2ccc(-c3nsc(C(N)=O)n3)c(F)c2)C(=O)O1 | 238 to 240
CC(C(=O)c1c(O)c2cccnc2n(-c2cccc(OC(F)(F)F)c2)c1=O)c1ccccc1 (stereo not drawn) | 136 to 138
COc1c(F)cc(-c2cncc(OC3SCC(O)C(O)C3O)c2)cc1F (stereo not drawn) | 203
O=C(CSc1ncccn1)C12CC3CC(CC(C3)C1)C2 | 100 to 101
COc1cc2c(c(Cl)c1Cl)C(=O)C(CCCCl)(CCC(C)=O)C2 (stereo not drawn) | 120 to 122
O=C1CCC(c2ccc(NC(=O)C3CC3(Cl)Cl)cc2)=NN1 (stereo not drawn) | 267 to 268
Fc1ccccc1Cn1cnc2c(Nn3ccc4ccccc43)ncnc21 | 236 to 238
COc1cc(COc2nn(-c3ccc(C(F)(F)F)cc3)cc2/C=C/CO)ccc1OCc1nc(-c2ccccc2)oc1C | 118 to 119
COc1ccc(Nc2cc3c(cc2Nc2ccc(OC)cc2)C(=O)NC3=O)cc1 | 191 to 193
CC1(C)CCC(C)(C)c2cc3c(cc21)C(C)(C)CCC3(C)C | 218 to 221
CC1(C)CON(CC2=C(Cl)CC(=NCc3ccccc3O)C=C2)C1=O | 105 to 107
CCCCc1ccc(NC(=O)CN(C)C)c(N)c1 | 66 to 68
O=[N+]([O-])c1ccc2c([N+](=O)[O-])c(O)c(O)cc2c1 | 200 to 207
COCC(O)CN1CCN(c2cc3c(cc2F)c(=O)c(C(=O)O)c2n3CCS2)CC1 (stereo not drawn) | 224
Cn1c(C(F)(F)F)cc(=O)n(-c2ccc(Cl)c(C=C(Cl)C(=O)O)c2)c1=O | 216 to 217
NC(=O)c1cc(O)c(O)c([N+](=O)[O-])c1 | 235 to 236
Cc1nnc2ccc(-c3cccc(N(C)C(=O)N(C)C)c3)nn12 | 159 to 161
CC(C(=O)O)c1ccc2c(c1)C(=O)CC(C(C)(C)C)O2 (stereo not drawn) | 117 to 118

SMILES | melting point [°C]
O=C1c2cc([N+](=O)[O-])ccc2OCCN1CCO | 151
CC(C)(C)OC(=O)c1cnc(F)cn1 | 26.5 to 28.1
Nc1nc(-c2ccc(Cl)cc2)c(CCC(=O)N2CCS(=O)(=O)CC2)s1 | 220 to 222
O=C(Nc1ccnn1-c1ccc(Cl)cc1Cl)c1cccnc1Cl | 162 to 164
CC(=O)OCc1nc(C(C)C)c(Sc2cc(Cl)cc(Cl)c2)n1Cc1ccncc1 | 133 to 135
CCN(CC)c1ccc(NC(=O)N(C[C@H]2CC[C@H](CN(C(=O)Nc3ccc(N(CC)CC)cc3)C3CCCCC3)CC2)C2CCCCC2)cc1 | 212 to 217
COc1ccc(C(=O)NCCCCCCCNC(=O)c2ccc(OC)cc2)cc1 | 157 to 159
CCCCOc1cc(CCS(=O)(=O)NC(=O)OCC(C)C)n(Cc2ccc(Cl)cc2Cl)n1 | 114 to 116
CC1(C)CC2(CC(C)(C)N1)OC1(CCCCCCCCCCC1)NC2=O | 97
Fc1ccc(/C=C/c2nc(COc3ccc(CCCCn4ccnn4)cc3)co2)cc1 | 124 to 125
O=c1c2cccc(F)c2nc2sccn12 | 187 to 189
CC(C)(C)c1ccc(C[C@@H](C(=O)O)[C@@H](O)c2ccc(F)cc2)cc1 (racemic) | 102 to 104
Cc1nc(N)c2nc(CO)n(NC3CCCC3)c2c1C | 254 to 256
Cc1nnc(CNC(=O)CN2C(=O)c3ccccc3C2=O)n1-c1ccc(Cl)cc1C(=O)c1ccccc1 | 251 to 253
CCCCCCCCCCCCCCCCOc1cc(OC)c(N)cc1OC | 61
CCCCCCCCNC(=O)N(C)C[C@H](O)[C@@H](O)[C@H](O)[C@H](O)CO | 111
CCOC(=O)C(=CNc1csnn1)C(=O)c1cc(F)c(Cl)nc1Cl | 110 to 114
CC(=O)c1ccc(NS(C)(=O)=O)c(Sc2ccc(F)cc2F)c1 | 114 to 117
CN1CCN(c2ccc(-c3nc(C(=O)Nc4nccs4)c(-c4ccc(Cl)cc4)[nH]3)cc2)CC1 | > 250
CC(=O)Nc1cccc(NC(=O)NC2N=C(c3ccccc3F)c3ccccc3N(CC(=O)N3CC4CCC(CC4)C3)C2=O)c1 (racemic) | 207 to 215
COCOc1ccc(C=O)c(O)c1 | 52 to 53
COc1cccc2[nH]c3c(c12)CC(N(C)C)CC3 (stereo not drawn) | 185 to 189
CCCCc1nc2c(N)nc3ccccc3c2n1CCCCCCCCNC(=O)c1ccccc1 | 150 to 151
COc1cccc2c1C13CCN(C(=O)C4CC4)C(C2)C1CCC(=O)C3 (stereo not drawn) | 144 to 147
